Experimental data as given in ChEMBL document CHEMBL6103579, “Antiproliferative activity of selenium-enriched coumarin derivatives on the SK-N-SH neuroblastoma cell line: Mechanistic insights” (Eur J Med Chem, 2025).
Activity calls are given as the source filed them. The calls are words filed in the database; no cut-off is given here.

Columns and labels:
N2a [1] = assay: Antitumor activity against mouse N2a cells implanted in female ICR mouse model assessed as reduction in tumor weight at 10 mg/kg, ip measured upto 8 days (reference value: 0.9 +/-0.26 g); assay type: functional; details: time <= 8 day
N2a [2] = assay: Antitumor activity against mouse N2a cells implanted in female ICR mouse model assessed as reduction in tumor weight at 20 mg/kg, ip measured upto 8 days (reference value: 0.9 +/-0.26 g); assay type: functional; details: time <= 8 day
N2a [3] = assay: Antitumor activity against mouse N2a cells implanted in female ICR mouse model assessed as tumor inhibition rate at 10 mg/kg, ip measured upto 8 days relative to control; assay type: functional; parameters: scale not given: the % may be the effect or the level left; details: time <= 8 day
N2a [4] = assay: Antitumor activity against mouse N2a cells implanted in female ICR mouse model assessed as tumor inhibition rate at 20 mg/kg, ip measured upto 8 days relative to control; assay type: functional; parameters: scale not given: the % may be the effect or the level left; details: time <= 8 day
N2a [5] = assay: Antitumor activity against mouse N2a cells implanted in female ICR mouse model assessed as change in body weight at 10 mg/kg, ip measured upto 8 days (reference value: 25.54 +/-2.19 g); assay type: functional; details: time <= 8 day
N2a [6] = assay: Antitumor activity against mouse N2a cells implanted in female ICR mouse model assessed as change in body weight at 20 mg/kg, ip measured upto 8 days (reference value: 25.54 +/-2.19 g); assay type: functional; details: time <= 8 day
N2a [7] = assay: Antiproliferative activity against mouse N2a cells assessed as inhibition of cell growth incubated for 60 hrs by CCK-8 method; assay type: functional, cell-based
N2a [8] = assay: Antitumor activity against mouse N2a cells implanted in female ICR mouse model assessed as reduction in cell nuclear size at 10 to 20 mg/kg, ip by H and E staining based analysis; assay type: functional, organism-based; details: dose 10-20 mg/kg
[9] = Toxicity in female ICR mouse assessed as abnormal movement at 10 to 20 mg/kg, ip; assay type: organism-based; details: in vivo, dose 10-20 mg/kg
[10] = Toxicity in female ICR mouse assessed as effect on body weight loss at 10 to 20 mg/kg, ip; assay type: organism-based; details: in vivo, dose 10-20 mg/kg
[11] = Toxicity in female ICR mouse assessed as hyperplasia in liver at 10 to 20 mg/kg, ip by H and E staining based analysis; assay type: organism-based; details: in vivo, dose 10-20 mg/kg
[12] = Toxicity in female ICR mouse assessed as appearance of intact glomeruli in kidney at 10 to 20 mg/kg, ip H and E staining based analysis; assay type: organism-based; details: in vivo, dose 10-20 mg/kg
[13] = Toxicity in female ICR mouse assessed as appearance of homogenous renal corpuscles in kidney at 10 to 20 mg/kg, ip H and E staining based analysis; assay type: organism-based; details: in vivo, dose 10-20 mg/kg
[14] = Toxicity in female ICR mouse assessed as histomorphological changes in spleen at 10 to 20 mg/kg, ip H and E staining based analysis; assay type: organism-based; details: in vivo, dose 10-20 mg/kg
[15] = Toxicity in female ICR mouse assessed as histomorphological changes in liver at 10 to 20 mg/kg, ip H and E staining based analysis; assay type: organism-based; details: in vivo, dose 10-20 mg/kg
[16] = Toxicity in female ICR mouse assessed as histomorphological changes in heart at 10 to 20 mg/kg, ip H and E staining based analysis; assay type: organism-based; details: in vivo, dose 10-20 mg/kg
[17] = Toxicity in female ICR mouse assessed as change in organ coefficient of heart at 10 mg/kg, ip […] (reference value: 0.006+/-0.002); assay type: organism-based; details: in vivo
[18] = Toxicity in female ICR mouse assessed as change in organ coefficient of heart at 20 mg/kg, ip […] (reference value: 0.006+/-0.002); assay type: organism-based; details: in vivo
[19] = Toxicity in female ICR mouse assessed as change in organ coefficient of liver at 10 mg/kg, ip […] (reference value: 0.058+/-0.010); assay type: organism-based; details: in vivo
[20] = Toxicity in female ICR mouse assessed as change in organ coefficient of liver at 20 mg/kg, ip […] (reference value: 0.058+/-0.010); assay type: organism-based; details: in vivo
[21] = Toxicity in female ICR mouse assessed as change in organ coefficient of spleen at 10 mg/kg, ip […] (reference value: 0.006+/-0.002); assay type: organism-based; details: in vivo
[22] = Toxicity in female ICR mouse assessed as change in organ coefficient of spleen at 20 mg/kg, ip […] (reference value: 0.006+/-0.002); assay type: organism-based; details: in vivo
[23] = Toxicity in female ICR mouse assessed as change in organ coefficient of lung at 10 mg/kg, ip […] (reference value: 0.007+/-0.001); assay type: organism-based; details: in vivo
[24] = Toxicity in female ICR mouse assessed as change in organ coefficient of lung at 20 mg/kg, ip […] (reference value: 0.007+/-0.001); assay type: organism-based; details: in vivo
[25] = Toxicity in female ICR mouse assessed as change in organ coefficient of kidney at 10 mg/kg, ip […] (reference value: 0.007); assay type: organism-based; details: in vivo
[26] = Toxicity in female ICR mouse assessed as change in organ coefficient of kidney at 20 mg/kg, ip […] (reference value: 0.007); assay type: organism-based; details: in vivo
SK-N-SH [27] = assay: Induction of mitochondrial dysfunction in human SK-N-SH cells assessed as appearance of ring like distribution at 6 uM measured upto 48 hrs; assay type: functional, cell-based
[28] = Drug localization in cytoplasm of human SK-N-SH cells assessed as increase in green fluorescence at 6 uM measured after 48 hrs by DAPI staining based fluorescence microscopic analysis; assay type: ADME, subcellular
[29] = Drug localization in mitochondria of living human SK-N-SH cells assessed as colocalization at 6 uM incubated for 48 hrs by DAPI staining based fluorescence microscopic analysis; assay type: ADME
[30] = Drug localization in nucleus of human SK-N-SH cells assessed as increase in green fluorescence at 6 uM measured after 48 hrs by DAPI staining based fluorescence microscopic analysis; assay type: ADME, subcellular
SK-N-SH [31] = assay: Induction of mitochondrial dysfunction in human SK-N-SH cells assessed as appearance of blurred mitochondria at 6 uM measured after 48 hrs by fluorescence microscopic analysis; assay type: functional, cell-based
SK-N-SH [32] = assay: Induction of mitochondrial dysfunction in human SK-N-SH cells assessed as appearance of fragmented mitochondria at 6 uM measured after 48 hrs by fluorescence microscopic analysis; assay type: functional, cell-based

- Drug uptake [28]: Active
- Drug uptake [29]: Active
- Drug uptake [30]: Not_active
Structure (SMILES): N#C[Se]CCCOc1ccc2cc(C(=O)N3N=C(c4ccc(F)cc4)CC3c3ccc(F)cc3)c(=O)oc2c1 (configuration not stated)
- Activity (N2a [1]): 0.19 g
- Activity (N2a [2]): 0.06 g
- Activity (N2a [3]): 79.1%
- Activity (N2a [4]): 93.3%
- Activity (N2a [5]): 27.2 g
- Activity (N2a [6]): 26.34 g
- IC50 (N2a [7]): 17.9 µM
- Activity (N2a [8]): Active
- Activity [9]: Non-toxic
- Activity [10]: Non-toxic
- Activity [11]: Non-toxic
- Activity [12]: Non-toxic
- Activity [13]: Non-toxic
- Activity [14]: Non-toxic
- Activity [15]: Non-toxic
- Activity [16]: Non-toxic
- Activity [17]: 0.005
- Activity [18]: 0.005
- Activity [19]: 0.059
- Activity [20]: 0.059
- Activity [21]: 0.006
- Activity [22]: 0.005
- Activity [23]: 0.007
- Activity [24]: 0.007
- Activity [25]: 0.007
- Activity [26]: 0.008
- Activity (SK-N-SH [27]): Active
- Activity (SK-N-SH [31]): Active
- Activity (SK-N-SH [32]): Active
